Data from ChEMBL document CHEMBL2177090, “Ceric ammonium nitrate-promoted oxidative coupling reaction for the synthesis and evaluation of a series of anti-tumor amide anhydrovinblastine analogs” (Bioorg Med Chem Lett, 2012).

System: HeLa
Test: Cytotoxicity against human HeLa cells by MTT assay
Type: functional, cell-based

Molecule `CCC1=C[C@H]2CN(CCc3c([nH]c4ccccc34)[C@@](C(=O)OC)(c3cc4c(cc3OC)N(C)[C@H]3[C@@](O)(CCNC(=O)C(C)C)[C@H](OC(C)=O)[C@]5(CC)C=CCN6CC[C@]43[C@@H]65)C2)C1` has an IC50 of 26 nM.

`CCC1=C[C@H]2CN(CCc3c([nH]c4ccccc34)[C@@](C(=O)OC)(c3cc4c(cc3OC)N(C)[C@H]3[C@@](O)(CCNC(C)=O)[C@H](OC(C)=O)[C@]5(CC)C=CCN6CC[C@]43[C@@H]65)C2)C1` showed an IC50 of 57 nM.

`CCC1=C[C@H]2CN(CCc3c([nH]c4ccccc34)[C@@](C(=O)OC)(c3cc4c(cc3OC)N(C)[C@H]3[C@@](O)(CCNC(=O)c5ccccc5OC)[C@H](OC(C)=O)[C@]5(CC)C=CCN6CC[C@]43[C@@H]65)C2)C1` showed an IC50 of 234 nM.

With `CCC1=C[C@H]2CN(CCc3c([nH]c4ccccc34)[C@@](C(=O)OC)(c3cc4c(cc3OC)N(C)[C@H]3[C@@](O)(CCNC(=O)C5CC5)[C@H](OC(C)=O)[C@]5(CC)C=CCN6CC[C@]43[C@@H]65)C2)C1` the IC50 was 142 nM.

Molecule `CCC1=C[C@@H]2CN(C1)Cc1c([nH]c3ccccc13)[C@@](C(=O)OC)(c1cc3c(cc1OC)N(C)[C@H]1[C@@](O)(C(=O)OC)[C@H](OC(C)=O)[C@]4(CC)C=CCN5CC[C@]31[C@@H]54)C2` [VINORELBINE] has an IC50 of 27 nM.

Molecule `CCC1=C[C@H]2CN(CCc3c([nH]c4ccccc34)[C@@](C(=O)OC)(c3cc4c(cc3OC)N(C)[C@H]3[C@@](O)(CCNC(=O)CC(C)C)[C@H](OC(C)=O)[C@]5(CC)C=CCN6CC[C@]43[C@@H]65)C2)C1` has an IC50 of 185 nM.

`CCC1=C[C@H]2CN(CCc3c([nH]c4ccccc34)[C@@](C(=O)OC)(c3cc4c(cc3OC)N(C)[C@H]3[C@@](O)(CCNC(=O)c5ccc(C)cc5)[C@H](OC(C)=O)[C@]5(CC)C=CCN6CC[C@]43[C@@H]65)C2)C1` gave an IC50 of 259 nM.

Molecule `CCC(=O)NCC[C@@]1(O)[C@H](OC(C)=O)[C@]2(CC)C=CCN3CC[C@@]4(c5cc([C@@]6(C(=O)OC)C[C@H]7C=C(CC)CN(CCc8c6[nH]c6ccccc86)C7)c(OC)cc5N(C)[C@@H]14)[C@@H]32` has an IC50 of 110 nM.

Work on `CCC1=C[C@H]2CN(CCc3c([nH]c4ccccc34)[C@@](C(=O)OC)(c3cc4c(cc3OC)N(C)[C@H]3[C@@](O)(CCNC(=O)c5ccco5)[C@H](OC(C)=O)[C@]5(CC)C=CCN6CC[C@]43[C@@H]65)C2)C1` yielded an IC50 of 18 nM.

Work on `CCC1=C[C@H]2CN(CCc3c([nH]c4ccccc34)[C@@](C(=O)OC)(c3cc4c(cc3OC)N(C)[C@H]3[C@@](O)(CCNC(=O)c5ccccc5F)[C@H](OC(C)=O)[C@]5(CC)C=CCN6CC[C@]43[C@@H]65)C2)C1` yielded an IC50 of 247 nM.

In the case of `CCC1=C[C@H]2CN(CCc3c([nH]c4ccccc34)[C@@](C(=O)OC)(c3cc4c(cc3OC)N(C)[C@H]3[C@@](O)(CCNC(=O)c5ccccc5)[C@H](OC(C)=O)[C@]5(CC)C=CCN6CC[C@]43[C@@H]65)C2)C1`, the IC50 is reported as 107 nM.

With `CCC1=C[C@H]2CN(CCc3c([nH]c4ccccc34)[C@@](C(=O)OC)(c3cc4c(cc3OC)N(C)[C@H]3[C@@](O)(CCNC(=O)c5cccc(OC)c5)[C@H](OC(C)=O)[C@]5(CC)C=CCN6CC[C@]43[C@@H]65)C2)C1` the IC50 was 169 nM.
